Measured values taken from patent US10947196B2, “Beta adrenergic agonist and methods of using the same” (CURASEN THERAPEUTICS, INC., priority 2019, dated 2021).
Where two headings read alike, the source gives them in different places.

Experiments:
[1] = Brain tissue binding, equilibrium dialysis (rat); type: in vitro ADME
Method: Thawing of the frozen brain tissue homogenate (stored at −80° C.). Frozen brain tissue homogenate was thawed immediately in a room temperature bath. Note: Only use brain tissue homogenate that has been thawed no more than once.
Preparation of working solutions. The working solutions of test compound and control compound propranolol were prepared in DMSO at the concentration of 200 μM. And then 4 μL of working solution was removed to mix with 796 μL of rat brain tissue homogenate to achieve a final concentration of 1 μM (0.5% DMSO). Brain tissue homogenate samples were vortexed thoroughly.
Preparation of dialysis membranes. The dialysis membranes were soaked in ultrapure water for 60 minutes to separate strips, then in 20% ethanol for 20 minutes, finally in dialysis buffer for 20 minutes.
Procedure for equilibrium dialysis. The dialysis apparatus was assembled according to the manufacturer's instruction. Each cell was filled with 150 μL of brain tissue homogenate sample and dialyzed against equal volume of dialysis buffer (PBS). The assay was performed in duplicate. The dialysis plate was sealed and incubated in an incubator at 37° C. with 5% CO2 at approximately 100 rpm for 6 hours. At the end of dialysis, seal was removed and 50 μL of samples from both buffer and brain tissue homogenate chambers were transferred into separate tubes in plate.
Procedure for sample analysis. 50 μL of brain tissue homogenate was added to each buffer samples and an equal volume of PBS was supplemented to the collected brain tissue homogenate sample. 400 μL of room temperature quench solution (acetonitrile containing internal standards (IS, 100 nM Alprazolam, 500 nM Labetalol and 2 μM Ketoprofen)) was added to precipitate protein. Samples in plate were vortexed for 5 minutes and centrifuged at 3,220 g for 30 minutes at room temperature. And then 100 μL of the supernatant was transferred to a new 96-well plate with 100 μL water for LC-MS/MS analysis.
Data analysis. All calculations were carried out using Microsoft Excel. […]
Fumeans=unbound fraction measured with brain tissue homogenate […]

[2] = Monkey pharmacokinetic studies; type: in vivo, male Non-Naïve Cynomolgus Monkeys; set-up: AUClast/D: unit not given here; details: PO 0.3 mg/kg; for AUC(0-inf) / AUC(0-t) / Cmax / Tmax / half-life / MRT inf: male, cynomolgus monkey; for MRT inf: read-out: MRTInf—obs
Method: The rat pharmacokinetics studies of exemplary compounds 03-3, 03-5, and 03-115 were conducted with male SD rats. These rats were typically about 6-8 weeks old, weighing 200 g to 300 g. Animals were fasted overnight and free access to food 4 hours after dosing. A required volume of vehicle was added to reach the target concentration of the test article and vehicle component to prepare for the dosing. The dosing vehicle was PEG400 or 30% PEG400 in saline for IV, or 0.5% methylcellulose in water for PO. For IV dosing, the animals were administered intravenously via tail vein. For PO dosing, the animals were administered via oral gavage. After dosing, blood sample was collected (˜0.2 mL per time point) through jugular vein or heart puncture. Blood of each sample was transferred into plastic micro centrifuge tubes containing EDTA-K2. Collection tubes with blood samples and anticoagulant were inverted several times for proper mixing of the tube contents and then placed on wet ice. The blood samples were centrifuged at 2000 g for 5 minutes at 4° C. to obtain plasma which was stored in a freezer at −75±15° C. prior to analysis. Samples were analyzed using LC-MS/MS. WinNonlin were used for pharmacokinetic calculations.
Monkey pharmacokinetics studies of exemplary compounds 03-3, 03-5, and 03-115 were conducted substantially similarly to the rat pharmacokinetic studies, instead using male Non-Naïve Cynomolgus Monkeys. Animals for PO studies were food fasted overnight prior to dosing and were fed approximately 2 hours after dosing. Animals for IV studies had free access to food and water. Blood samples were collected through venipuncture of peripheral veins except the dosing vein.

SMILES	fraction unbound at 6 h, 1 μM ([1]; rat, brain homogenate)	AUClast/D [2]	AUC—% Extrap—obs [2] [%]	F [2] [%]	AUC(0-inf) ([2]; plasma) [ng·h/mL]	AUC(0-t) ([2]; plasma) [ng·h/mL]	Cmax ([2]; plasma) [ng/mL]	Tmax ([2]; plasma) [h]	half-life ([2]; plasma) [h]	MRT inf ([2]; plasma) [h]	fraction unbound at 6 h, 1 μM ([1]; 1 μM, rat brain tissue homogenate, dialysis 6 hours, read-out: BTB (rat), percent of unbound fraction)	AUC(0-inf) ([2]; in vivo) [ng·h/mL]	Cmax ([2]; in vivo) [ng/mL]	Tmax ([2]; in vivo) [h]	MRT inf ([2]; in vivo) [h]
CC(C)(C)NC[C@H](O)c1cccc(C(F)(F)F)n1 [Compound 03-3]	0.48	761	1.87	44.6	232	228	46.6	1	4.32	4.99	–	–	–	–	–
CC(C)(C)NC[C@H](O)c1cccc(C#N)n1 [Compound 03-5, (S)-6-(2-(tert-butylamino)-1-hydroxyethyl)picolinonitrile]	0.95	1144	2.13	88.3	351	343	66.2	1	4.53	5.11	–	–	–	–	–
Cc1ncccc1[C@@H](O)CNC(C)(C)C [Compound 03-115]	–	–	–	71	–	–	–	–	–	–	1	261	67	1.17	3.46
